US8178506B2, “Oligomeric compounds and compositions for use in modulation of small non-coding RNAs” (Regulus Therapeutics Inc., priority 2003, dated 2012)

Tests used:
Type in all cases: cell-based, human
[1] = tested on: let-7d pri-miRNA; assay: let-7d pri-miRNA expression in T-24 cells; conditions: 100 nM
Method: Using the transfection methods previously described, supra, T-24 cells were treated with 100 nM of the oligomeric compound ISIS Number 327926 (SEQ ID NO: 344) targeting the let-7d mature miRNA. Total RNA was isolated and expression levels of the let-7d pri-miRNA were analyzed by real-time quantitative RT-PCR using a primer/probe set specific for the let-7d pri-miRNA molecule (forward primer=ISIS 341678 (CCTAGGAAGAGGTAG TAGGTTGCA; herein incorporated as SEQ ID NO.: 771), reverse primer=ISIS 341679 ([…]; herein incorporated as SEQ ID NO.: 772), and probe=ISIS 341680 ([…]; herein incorporated as SEQ ID NO.: 773)).

[2] = tested on: mir-21 pri-miRNA; assay: mir-21 pri-miRNA expression in HeLa cells (real-time RT-PCR)
[3] = tested on: mir-21 mature miRNA; assay: Northern blot of mature mir-21 in HeLa cells; conditions: 100 nM
Method: In one embodiment, the expression of mir-21 (noted to be expressed at high levels in HeLa cells) was assessed in cells treated with oligomeric compounds. Using the transfection methods previously described, HeLa cells were treated with 100 nM of the uniform 2′-MOE oligomeric compound ISIS Number 327917 (SEQ ID NO: 335) targeting the mir-21 mature miRNA. Total RNA was isolated by lysing cells in 1 mL TRIZOL™ (Invitrogen) using the manufacturer's recommended protocols. […] Real-time RT-PCR analysis was also performed on HeLa cells treated with ISIS 327917 using a primer/probe set specific for the mir-21 pri-miRNA molecule [forward primer=ISIS 339332 ([…]; herein incorporated as SEQ ID NO.: 911), reverse primer-ISIS 339333 (TCGACTGGTGTTGCCATGA; herein incorporated as SEQ ID NO.: 912), and probe=ISIS 339334 ([…]; herein incorporated as SEQ ID NO.: 913)]. Total RNA was quantified using RiboGreen™ RNA quantification reagent (Molecular Probes, Inc. Eugene, Oreg.), expression levels observed for the target were normalized to 5.8S rRNA, and values were expressed relative to an untreated control (UTC).

[4] = tested on: mir-21 miRNA; assay: pGL3-mir-21 sensor luciferase assay in HeLa cells
Text: In order to assess the ability of miRNAs to bind predicted miRNA binding sites and regulate the expression of the luciferase reporter, in some embodiments, expression systems based on the pGL3-Control (Promega Corp., Madison Wis.) reporter vector and comprising either a mir-15a, mir-21, or a mir-23b miRNA binding site were developed and used in transient transfections of HeLa cells to determine whether the endogenous mir-15a, mir-21, or mir-23b miRNAs, respectively, could repress luciferase reporter gene expression.
The pGL3-mir-21 sensor plasmid was created by cloning the sequence ([…]; SEQ ID NO: 335), representing a sequence complementary to the mir-21 miRNA, into the Xba site of the pGL3-Control plasmid, placing the potential miRNA-binding site in the 3′UTR of the luciferase reporter. This reporter plasmid was used to transfect HeLa cells and it was observed that the endogenous mir-21 miRNA was able to inhibit luciferase expression from the pGL3-mir-21 sensor plasmid. Thus, to further evaluate the ability of the mir-21 miRNA to bind this target site encoded by the pGL3-mir-21 sensor plasmid, and to assess the ability of oligomeric compounds to interfere with mir-21-mediated silencing, pGL3-mir-21 sensor-expressing HeLa cells were treated with varying concentrations (10 nM or 50 nM) of the following oligomeric compounds: ISIS Number 327917 (SEQ ID NO: 335), a phosphorothioate uniform 2′-MOE oligomeric compound; ISIS Number 338697 ([…]; herein incorporated as SEQ ID NO: 524), a uniform 2′-MOE oligomeric compound targeting the mir-21 pri-miRNA molecule; and ISIS Number 328415 (SEQ ID NO: 524), a 2′-MOE 5-10-5 gapmer oligomeric compound targeting the mir-21 pri-miRNA. The uniform 2′-MOE phosphorothioate oligomeric compound ISIS Number 327901 (SEQ ID NO: 319) targeting an unrelated miRNA (mir-143) was used as a negative control. The data are the average of three trials and are presented in Table 44 as percent untreated control (luciferase plasmid only, not treated with oligomeric compound) luciferase expression, normalized to pRL-CMV levels.
In one embodiment, the oligomeric compounds ISIS Number 327917 (SEQ ID NO: 335), the phosphorothioate uniform 2′-MOE targeting mature mir-21; ISIS Number 358768 (SEQ ID NO: 918), the uniform 2′-MOE targeting the mir-21 pri-miRNA which stimulated the largest increase in pri-miRNA expression levels by real time quantitative RT-PCR; and ISIS Number 345382 (SEQ ID NO: 335), the 5-10-7 phosphorothioate 2′-MOE gapmer targeting mature mir-21 were selected for dose response studies in HeLa cells using the luciferase reporter system described in Example 27. ISIS Number 342683 (SEQ ID NO: 790), representing the scrambled nucleotide sequence of an unrelated PTP1B antisense oligonucleotide, was used as a negative control. HeLa cells expressing the pGL3-mir-21 sensor plasmid (described in Example 27) were treated with 1.9, 5.5, 16.7, and 50 nM of these oligomeric compounds, to assess the ability of oligomeric compounds to interfere with endogenous mir-21-mediated silencing of the pGL3-mir-21 sensor plasmid. The data are presented in Table 50 as percent untreated control (luciferase plasmid only, not treated with oligomeric compound) luciferase expression, normalized to pRL-CMV levels.

ACTATGCAACCTACTACCTCT (chemistry not given here) [ISIS 327926, uniform 2′-MOE PS; targets let-7d]
increase in expression levels of the let-7d pri-miRNA molecule [1]: approximately 1.7 fold

TCAACATCAGTCTGATAAGCTA (chemistry not given here) [ISIS 327917, uniform 2′-MOE PS; targets mir-21]
increase in levels of the mir-21 pri-miRNA molecule ([2]; HeLa, 100 nM): approximately 2 fold | levels of the mir-21 pri-miRNA molecule ([2]; HeLa, 100 nM): stimulate an increase in levels of the mir-21 pri-miRNA molecule | mir-21 pri-miRNA levels, dose response ([2]; HeLa, 25, 50, 100 and 200 nM): dose-responsive induction of mir-21 pri-miRNA levels | expression levels of the mir-21 mature miRNA [3]: 50 % of those of untreated control cells | expression of the luciferase reporter, pGL3-mir-21 sensor ([4]; HeLa, 10 nM or 50 nM): de-repressed the expression of the luciferase reporter | expression of the luciferase reporter, pGL3-mir-21 sensor, dose response ([4]; HeLa, 1.9, 5.5, 16.7 and 50 nM): de-repressed the expression of the luciferase reporter, in a dose-dependent fashion
